Counter-ions that a name gives are not always drawn. Like-named read-outs stand apart in the source and are kept apart here.
Experiments:
[1] = system: UAG stop codon readthrough of mCherry (Lys55) with PylT/PylS genes from Methanosarcina mazei; test: modified mCherry fluorescence protein assay for stop codon readthrough (Example 2); format: cell-based, E. coli strain BL21(DE3); conditions: for mCherry production: Terrific Broth
Protocol: The site-specific incorporation efficiencies of these analogs were measured with a modified fluorescence protein assay using a fluorescent protein as a reporting gene to monitor stop codon readthrough. This approach was made compatible with large scale measurements by 1) using mCherry instead of GFP to reduce the fluorescence background introduced by growth medium, 2) growing the host cells in 24-well plates to facilitate handling of multiple samples and minimize deviation between samples, and 3) measuring the fluorescence intensity of the cell culture in the plates to save the labor of electrophoresis and western blotting.
In this study, the Lys55 codon of mCherry was site-specifically mutated to UAG and inserted into the plasmid pPylST harbouring the pyrrolysine tRNA (PylT) and synthetase (PylS) genes from Methanosarcina mazei. E. coli strain BL21(DE3) transformed with this plasmid was grown in the Terrific Broth medium supplied with 2 mM pyrrolysine analog to be examined. […] These differences are seen in FIG. 3, where the results have been normalized against analog 3. Similar results were observed when the supplied analog concentration varied from 0.5 mM to 20 mM.
As analogs 4-6 were prepared and screened as ˜1:1 mixtures of diastereomers, we carried out further readthrough experiments with isomerically pure samples of 6 prepared from commercially available (R)- and (S)-propargylglycines. The readthrough efficiencies of L-6, D-6 and the enantiomer mixture were tested at various concentrations. […] This is seen in FIG. 4. […] One explanation is that the less efficient incorporable isomer L-6 is a competitive inhibitor of D-6.
The effect of the growth medium pH on the readthrough efficiency of D-6 was investigated using the modified mCherry assay. […] When 2 mM D-6 was used as substrate, the production of full-length mCherry increased as the pH of the growth medium increased. The total amount of produced mCherry peaked at pH 8.5 and dropped a little at pH 9.0 due to a lower cell density.

[2] = system: UAG codon readthrough of mCherry (Lys55 codon mutated to UAG) with PylT/PylS; test: mCherry UAG codon readthrough assay (Example 1); format: cell-based, E. coli strain BL21(DE3); conditions: for readthrough of the UAG codon: Terrific Broth medium, varying concentrations
Protocol: In order to evaluate the UAG codon readthrough efficiency for the two diastereomers, the brightly emitting red fluorescent protein, mCherry, was employed as a reporter. Briefly, the Lys55 codon of this protein was site-specifically mutated to UAG and inserted into the plasmid pPylST harbouring the pyrrolysine tRNA (PylT) and synthetase (PylS) genes. E. coli strain BL21(DE3) transformed with this plasmid was grown in the Terrific Broth medium supplied with either the (S,S)-isomer or (R,S)-isomer at varying concentrations. […] This is seen in the graph of FIG. 1, where the relative fluorescence of the (S,S)-isomer was higher at all concentrations.

recombinant protein = test: incorporation into a recombinant protein; format: cell-based
[3] = 2 mM analog, normalized against analog 3, ~1:1 mixture of diastereomers

C#CCC(N)C(=O)NCCCC[C@H](N)C(=O)O (stereo partly drawn) [Formula (6)]
readthrough efficiency (in words) ([1]; listed as enantiomer mixture): moderate efficiency

[N-]=[N+]=NCC(=O)NCCCC[C@H](N)C(=O)O [Formula (10), N^6-(Azidoacetyl)lysine trifluoroacetate]
readthrough efficiency, fold less efficient than analog 3 [1, 3]: 30 fold

N[C@H](CS)C(=O)NCCCC[C@H](N)C(=O)O [Formula (1)]
readthrough of the UAG codon [2]: enabled readthrough of the UAG codon | readthrough efficiency, comparison of the two isomers ([2]; versus (R,S)-isomer, FIG. 1): much better substrate

CC1(CC(=O)NCCCC[C@H](N)C(=O)O)N=N1 [Formula (11), N^6-(2-(3-Methyl-3H-diazirin-3-yl)acetyl)lysine trifluoroacetate]
incorporation into a recombinant protein (recombinant protein): incorporated into a recombinant protein

C#CCC(N)C(=O)NCCCC[C@H](N)C(=O)O (stereo partly drawn) [Formula 6]
readthrough efficiency (in words) [1]: best substrate | readthrough efficiency, more efficient than analog 3 [1, 3]: 69%

C#CCC(O)C(=O)NCCCC[C@H](N)C(=O)O (stereo partly drawn) [Formula 5]
mCherry production ([1]; 2 mM analog): no detectable mCherry production

C#CCCC(=O)NCCCC[C@H](N)C(=O)O [Formula 7]
mCherry production ([1]; 2 mM analog): no detectable mCherry production

C#CC[C@@H](N)C(=O)NCCCC[C@H](N)C(=O)O [Formula D-6]
readthrough efficiency (in words) [1]: highly efficient | readthrough efficiency, fold more efficient than L-6 ([1]; isomerically pure samples, various concentrations, FIG. 4): 35 fold

N[C@@H](CCCCNC(=O)[C@@H](N)CS)C(=O)O [Formula (2)]
readthrough of the UAG codon [2]: enabled readthrough of the UAG codon

Source: US8921571B2, “Pyrrolysine analogs” (The Ohio State University, priority 2009, dated 2014)
